Results on 23 compounds are retold here after ChEMBL document CHEMBL1201862, “PubChem BioAssay data set” (2004).

Calls of active or inactive are those of the source.

The target of test [1] is Luciferin 4-monooxygenase (Photinus pyralis, UniProt P08659). Kind of test: inhibition of purified Photinus pyralis luciferase – biochemical, luminescence, dose response (AID 1891).
Test [2] is described as follows: Luminescence Cell-Based Dose Confirmation HTS to Identify Inhibitors of Platelet Dense Granule Release. [Related pubchem assays: 1663 (Primary HTS), 1678 (Summary of Project)]. The format is functional.
Test [3] can be described thus: Luminescence Cell-Based Dose Response HTS to Identify Inhibitors of 5'UTR Stem-Loop Driven Prion Protein mRNA Translation in H4 Neuroglioblastoma Cells. [Related pubchem assays: 1827 (Project Summary), 1813 (Primary HTS)]. The format is functional.
The test system of test [4] is BJ. Put plainly: cells. The test is classed as functional, cell-based. The note with it: Homo sapiens.
Test [5] is described as follows: alpha-synuclein stem-loop luciferase translation blockers – H4 neuroglioma cells, luminescence, confirmation (AID 1988). The format is functional, cell-based.
Test [6] in a line: luciferase reporter signal suppression in cells – H4 neuroglioma cells, luminescence, dose response (AID 1990). The test is classed as functional, cell-based.
A short description of test [7]: DRD fibroblast viability loss – cell-based, non-viral oncogenic, luminescence, dose response (AID 1934). As to conditions: Homo sapiens. The format is functional.
Test [8] has as its system BJ. Kind of test: BJ-TERT fibroblast viability loss – cell-based, RAS-independent, luminescence, dose response (AID 1933). The format is functional. As to conditions: Homo sapiens.
In test [9] the test system is BJ. Put plainly: BJ-TERT-LT-ST fibroblast viability loss – cell-based, RAS-independent, luminescence, dose response (AID 1935).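 Note: BJ fibroblasts immortalized with TERT plus LT and ST oncogenes.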 The format is functional. The note with it: Homo sapiens.
Test [10] in a line: microbe, parasite or virus in culture. The test is classed as functional. As to conditions: Mycobacterium tuberculosis.
Test [11] is described as follows: Luminescence Cell-Based Dose Retest to Confirm Inhibitors of Cancer Stem Cells. [Related pubchem assays (depositor defined):AID2717, AID2721]. The format is functional. As to conditions: Homo sapiens.
Test [12] concerns the target T1, Zinc finger protein mex-5 (Caenorhabditis elegans, UniProt Q9XUB2).
T1 sequence (Q9XUB2 whole entry): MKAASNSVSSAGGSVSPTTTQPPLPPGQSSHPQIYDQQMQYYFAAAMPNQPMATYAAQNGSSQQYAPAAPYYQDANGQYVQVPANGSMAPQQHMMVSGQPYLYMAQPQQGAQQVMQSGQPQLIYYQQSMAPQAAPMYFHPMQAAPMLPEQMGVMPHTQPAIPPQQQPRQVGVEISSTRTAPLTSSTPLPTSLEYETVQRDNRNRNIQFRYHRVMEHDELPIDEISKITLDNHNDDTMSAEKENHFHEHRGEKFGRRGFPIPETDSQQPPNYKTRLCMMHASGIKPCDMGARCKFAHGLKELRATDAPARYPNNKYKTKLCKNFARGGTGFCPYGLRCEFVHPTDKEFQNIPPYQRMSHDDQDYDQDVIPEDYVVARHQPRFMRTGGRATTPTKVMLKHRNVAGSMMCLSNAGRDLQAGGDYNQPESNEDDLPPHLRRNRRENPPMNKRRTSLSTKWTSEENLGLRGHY
Put plainly: potency of MEX-5 RNA-binding blockers – biochemical, C. elegans, fluorescence polarization, dose response (AID 1960). For orientation: Fluorescence polarisation rises when a labelled molecule tumbles more slowly, as on binding a larger partner.

Test [13] concerns the target T2, RNA-binding protein pos-1 (Caenorhabditis elegans, UniProt G5EF15).
T2 sequence (G5EF15 whole entry): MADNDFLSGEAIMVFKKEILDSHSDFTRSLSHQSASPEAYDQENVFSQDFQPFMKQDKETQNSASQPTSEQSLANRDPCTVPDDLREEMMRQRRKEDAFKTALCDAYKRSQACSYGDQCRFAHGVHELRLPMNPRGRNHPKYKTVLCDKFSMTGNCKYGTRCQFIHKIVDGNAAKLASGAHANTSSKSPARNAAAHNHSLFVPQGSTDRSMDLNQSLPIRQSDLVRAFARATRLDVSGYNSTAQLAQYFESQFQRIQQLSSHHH
Put plainly: disruptors of C. elegans POS-1 RNA interaction – biochemical, fluorescence polarization, dose response (AID 1964).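 Note: purified POS-1 fused to maltose binding protein made in E. coli; potency of compounds blocking POS-1 binding to fluorescent RNA.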

The target of a further test is T3, Cytochrome P450 1A2 (Homo sapiens, UniProt P05177).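 Note: PubChem cytochrome P450 panel assay, CYP1A2 panel member.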
T3 sequence (P05177 whole entry): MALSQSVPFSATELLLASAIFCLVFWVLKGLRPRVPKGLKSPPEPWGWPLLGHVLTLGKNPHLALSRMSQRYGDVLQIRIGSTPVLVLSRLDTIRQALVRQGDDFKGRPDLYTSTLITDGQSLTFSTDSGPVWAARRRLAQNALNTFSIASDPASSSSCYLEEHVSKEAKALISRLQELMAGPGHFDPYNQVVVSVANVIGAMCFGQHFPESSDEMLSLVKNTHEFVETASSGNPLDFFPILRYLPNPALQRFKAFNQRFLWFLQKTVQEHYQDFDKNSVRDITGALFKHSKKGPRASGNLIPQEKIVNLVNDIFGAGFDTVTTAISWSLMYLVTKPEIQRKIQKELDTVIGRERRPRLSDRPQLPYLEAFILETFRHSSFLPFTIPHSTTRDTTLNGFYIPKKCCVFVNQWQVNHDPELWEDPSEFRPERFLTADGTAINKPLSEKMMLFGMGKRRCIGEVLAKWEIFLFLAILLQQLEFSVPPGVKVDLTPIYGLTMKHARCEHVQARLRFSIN

In test [14] the target is T4, DNA repair and recombination protein RAD54-like (Homo sapiens, UniProt Q92698).
T4 sequence (Q92698 whole entry): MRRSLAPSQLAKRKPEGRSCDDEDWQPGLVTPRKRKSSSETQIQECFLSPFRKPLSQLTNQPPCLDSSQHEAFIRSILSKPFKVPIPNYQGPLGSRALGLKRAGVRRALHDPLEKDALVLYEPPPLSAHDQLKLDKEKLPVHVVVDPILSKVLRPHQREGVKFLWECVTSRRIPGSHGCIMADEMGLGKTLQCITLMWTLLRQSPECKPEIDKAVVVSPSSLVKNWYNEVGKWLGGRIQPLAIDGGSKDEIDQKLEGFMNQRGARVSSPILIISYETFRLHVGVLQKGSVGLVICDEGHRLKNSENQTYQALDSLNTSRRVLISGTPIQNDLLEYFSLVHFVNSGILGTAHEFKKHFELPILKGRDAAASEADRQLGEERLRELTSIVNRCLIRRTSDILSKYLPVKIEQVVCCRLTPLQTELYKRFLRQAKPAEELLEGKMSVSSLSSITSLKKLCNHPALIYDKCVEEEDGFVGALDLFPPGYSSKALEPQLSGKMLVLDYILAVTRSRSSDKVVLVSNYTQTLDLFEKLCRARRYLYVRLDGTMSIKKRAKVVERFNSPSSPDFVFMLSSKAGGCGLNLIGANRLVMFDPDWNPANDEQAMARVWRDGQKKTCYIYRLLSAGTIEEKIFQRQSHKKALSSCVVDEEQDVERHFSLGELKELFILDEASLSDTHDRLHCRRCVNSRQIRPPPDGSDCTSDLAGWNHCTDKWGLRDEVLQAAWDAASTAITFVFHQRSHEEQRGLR
Put plainly: RAD54 Holliday junction migration blockers – biochemical, fluorescence, cherry-picked samples, dose series, confirmation (AID 651657). The format is functional.

The nature of test [15]: HIV-1 AD8 envelope cell-cell fusion blockers – cherry-pick, dose response (AID 652062).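 Note: luciferase signal from cell-cell fusion driven by HIV-1 clade B AD8 Env; potency is for inhibitors of fusion seen as a drop in luminescence.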 The test is classed as functional, cell-based.
The test system of the next test is INS1. Kind of test: INS-1E survival protection against cytokine death – cell-based, luminescence, retest, dose response (AID 449756).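 Note: cell death triggered by IL-1 beta plus TNF-alpha plus IFN-gamma mixture; protective hits raise ATP signal compared with cytokine alone wells.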 The test is classed as functional. The note with it: Rattus norvegicus.
For test [16], the target named is T5, Polyadenylate-binding protein 1 (Homo sapiens, UniProt P11940). Kind of test: MLLE domain peptide-binding blockers, IC50 – biochemical, fluorescence polarization, FITC-PAM2 peptide, dose response (AID 602259). The format is functional. As to conditions: read-out: IC50_Mean.
The target of test [17] is T5, Polyadenylate-binding protein 1. Kind of test: MLLE binding blockers, Cy5 peptide tracer – biochemical, fluorescence polarization, Cy5-PAM2 peptide, secondary, miRNA deadenylation inhibitor project, dose response (AID 602260). The note with it: read-out: IC50_Mean. The format is functional.
The target in test [18] is T6, Ubiquitin-conjugating enzyme E2 N (Homo sapiens, UniProt P61088).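 Note: Dose-response confirmation in a TR-FRET assay detecting UBC13-driven polyubiquitin chain formation, inhibition measured.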
T6 sequence (P61088 whole entry): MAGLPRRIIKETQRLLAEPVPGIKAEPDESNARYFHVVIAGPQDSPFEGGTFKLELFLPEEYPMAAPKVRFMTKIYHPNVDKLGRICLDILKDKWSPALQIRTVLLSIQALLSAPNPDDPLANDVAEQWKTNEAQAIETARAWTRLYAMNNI
The format is functional.

Test [19] is described as follows: reduction of Shn3 3'UTR-driven luciferase in osteoblasts – cell-based, Clone20 osteoblasts, firefly luciferase, cherry-picked, dose response (AID 624132).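 Note: firefly luciferase luminescence from reporter carrying the Shn3 3'UTR in osteoblasts.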 The test is classed as functional.
Test [20] is described as follows: non-specific 3'UTR reporter inhibition in Clone20-Shn3RL – cell-based, Renilla luciferase, cherry-picked, counter-screen for Shn3 inhibitor project, dose response (AID 624133). The format is functional.
Test [21] in a line: blockers of HIV-1 envelope-mediated cell-cell fusion – cherry-pick, dose response (AID 652057). The test is classed as functional, cell-based.

By EC50 is commonly meant the concentration that produces a half-maximal response. One may read the AC50 as the concentration at which the activity in the assay is half-maximal.

Chain of Luciferin 4-monooxygenase (P08659 whole entry): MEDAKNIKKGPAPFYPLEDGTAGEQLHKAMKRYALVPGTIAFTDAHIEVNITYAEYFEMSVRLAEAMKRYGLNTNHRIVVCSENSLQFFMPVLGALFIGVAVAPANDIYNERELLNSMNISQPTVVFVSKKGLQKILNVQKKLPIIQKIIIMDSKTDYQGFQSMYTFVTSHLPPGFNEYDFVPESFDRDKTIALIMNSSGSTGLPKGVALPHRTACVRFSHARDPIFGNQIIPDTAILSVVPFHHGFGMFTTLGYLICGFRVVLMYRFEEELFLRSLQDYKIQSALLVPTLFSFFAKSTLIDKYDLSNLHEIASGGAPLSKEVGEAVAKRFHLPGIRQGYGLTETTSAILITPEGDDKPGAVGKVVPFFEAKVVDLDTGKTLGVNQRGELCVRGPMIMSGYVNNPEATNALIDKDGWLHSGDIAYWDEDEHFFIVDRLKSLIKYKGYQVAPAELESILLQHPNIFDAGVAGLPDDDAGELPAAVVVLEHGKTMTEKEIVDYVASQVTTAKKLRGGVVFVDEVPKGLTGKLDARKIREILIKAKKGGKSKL
T5 sequence (P11940 whole entry, the tested form may be a part): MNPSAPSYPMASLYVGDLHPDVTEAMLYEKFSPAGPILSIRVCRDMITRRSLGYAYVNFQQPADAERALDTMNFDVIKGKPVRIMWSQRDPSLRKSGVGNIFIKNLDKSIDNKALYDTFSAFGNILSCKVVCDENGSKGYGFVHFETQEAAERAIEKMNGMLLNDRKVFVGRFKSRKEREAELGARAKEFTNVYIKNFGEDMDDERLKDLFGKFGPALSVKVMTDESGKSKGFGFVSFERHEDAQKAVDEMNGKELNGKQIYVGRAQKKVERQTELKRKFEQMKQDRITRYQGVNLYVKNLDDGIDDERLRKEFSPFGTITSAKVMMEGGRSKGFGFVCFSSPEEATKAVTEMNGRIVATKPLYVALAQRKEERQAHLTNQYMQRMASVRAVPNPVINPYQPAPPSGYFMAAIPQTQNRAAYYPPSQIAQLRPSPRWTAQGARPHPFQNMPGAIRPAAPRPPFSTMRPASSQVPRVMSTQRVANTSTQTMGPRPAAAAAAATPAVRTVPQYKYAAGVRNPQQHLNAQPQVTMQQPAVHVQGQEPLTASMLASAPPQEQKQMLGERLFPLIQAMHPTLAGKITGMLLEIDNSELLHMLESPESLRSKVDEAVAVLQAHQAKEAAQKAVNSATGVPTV

Take `CCN(CC)CC(C)OC(=O)c1ccccc1Cl` (stereo unspecified): the EC50 in test [1] and in [2] was > 112 µM (not active) each time.

`CC(=O)Nc1ccc(Nc2nc(-c3c(C)nc4ccccn34)cs2)cc1`: the EC50 in test [3] is 227 nM (active); with BJ [4], 70.7 µM (inconclusive); in test [5], 130 nM (active); in test [6], > 120 µM (not active); in [7] it was 2.86 µM (inconclusive); with BJ [8] it was 2.15 µM (active). The EC50 in the test on BJ [9] was 0.654 µM (inconclusive).

For the compound `Cc1cccc2cc(CN(CC(C)C)S(=O)(=O)c3ccccc3)c(O)nc12`, the concentration for a half-maximal effect (EC50) in test [1] and in test [2] was > 112 µM (not active) throughout.

As to `Cc1ccn2c(NC3CCCCC3)c(-c3cccc(-c4cccc(Cl)c4)c3)nc2c1`, the CC50 in [10] was > 40 µM (active). Moreover, the AC50 in test [11] was 2.85 µM (active).

On to `CCOC(=O)C1C(c2ccc(OC)c(OC)c2)c2c(n[nH]c2O)CC1(C)O` (stereo unspecified), for which the EC50 in test [1] and in [2] was > 112 µM (not active) throughout.

For the compound `CC1(OC(=O)c2cnc3ccccc3n2)C(=O)C=C2C=C(C3CC3)OC=C2C1=O` (stereo unspecified), the EC50 in [12] and in test [13] was > 300 µM (not active) in each case.

Consider `CN1CCN(c2ccc([N+](=O)[O-])cc2C(=O)c2ccc(Cl)cc2)CC1`, for which the EC50 was 33.7 µM (inconclusive) in the test with BJ [4], 4.22 µM (active) in [7], 5.02 µM (active) in the test on BJ [8] and 11 µM (inconclusive) in the test on BJ [9].

As to `CCOC(=O)c1c(NC(=O)c2c(C)noc2C)sc2c1CCCCC2`, the EC50 in test [1] and in test [2] was > 112 µM (not active) in each case. In addition, the AC50 at Cytochrome P450 1A2 is 5.01 µM (inconclusive).

In the case of `CCN1CCCC1CNC(=O)c1cc2c(-c3cccc(OC)c3)nn(C)c2s1` (stereo unspecified), the half-maximal activity concentration (AC50) in test [14] is 56.9 µM (active).

For `c1csc(-c2csc3ncnc(NCCCN4CCOCC4)c23)c1`, the AC50 in test [15] is 4.73 µM (active); in the test with INS1, 9.18 µM (active).

As for `CC1(C)c2[nH]c3ccccc3c2C[C@@H]2C(=O)N(c3ccc(F)cc3F)C(=O)N21`, the EC50 in test [12] was 46.8 µM (active); in test [13], > 300 µM (not active).

As to `Cc1ccc(NC(S)=Nc2ccc3c[nH]nc3c2)cc1`, the EC50 in test [1] and in test [2] was > 112 µM (not active) throughout.

Take `Cn1c(O)nc2cc(Cl)cnc21`: the results for the IC50 in test [16] and in test [17] were 35.1 µM (inactive) and > 66 µM (inactive), respectively. Besides, the EC50 is 24.8 µM (active) in [12] and 27 µM (active) in test [13].

Consider `Oc1ccccc1-c1nc(NCCN2CCOCC2)c2ccccc2n1`, for which, in [14], the AC50 was 29.5 µM (active).

Regarding `CCOC(=O)CSc1nc2ccc(N)cc2s1`, the EC50 in test [1] and in test [2] was > 112 µM (not active) each time.

Turning to `CCC(=O)OC1(C)C(=O)C=C2C=C(c3ccc(C#N)cc3)OC=C2C1=O` (stereo unspecified), the EC50 in [12] was 40.8 µM (active); in [13], 85.4 µM (active).

In the case of `O[C@@H](c1cc(C(F)(F)F)nc2c(C(F)(F)F)cccc12)[C@H]1CCCCN1`, the IC50 in [18] was > 20 µM (inactive). Besides, the CC50 in test [10] was 13.5 µM (active).

Consider `Cc1c(C(=O)N(Cc2cccc(Br)c2)C2CCS(=O)(=O)C2)oc2ccccc12` (stereo unspecified), for which the results for the AC50 in [19] and in test [20] were 35.9 µM (active) and > 70 µM (inactive), respectively.

Consider `C=CCn1cc(/C=N/Nc2nc3ccccc3[nH]2)c2ccccc21`, for which the figures for the EC50 in [1] and in test [2] were 45.1 µM (active) and > 112 µM (not active), respectively.

For the compound `C[C@@H]1CN([C@H](C)CO)S(=O)(=O)c2ccc(-c3ccccc3)cc2O[C@@H]1CN(C)Cc1ccccc1`, in test [21], the AC50 is 31.8 µM (active).

`C[C@H]1CN([C@@H](C)CO)C(=O)c2cc(NS(C)(=O)=O)ccc2O[C@@H]1CN(C)Cc1ccc(Cl)c(Cl)c1`: the AC50 in [21] was 48.9 µM (active).

With `C[C@H]1CN([C@@H](C)CO)C(=O)c2c(c3ccccc3n2C)-c2ccccc2CO[C@H]1CN(C)C(=O)CCC(F)(F)F`, the values for the AC50 in test [15] and in test [21] were 0.411 µM (active) and < 0.26 µM (active), respectively.

As for `COCCCn1c(-c2ccc(S(=O)(=O)N3CCOCC3)cc2)cs/c1=N/c1ccccc1`, in [15], the AC50 was 15.3 µM (active).
